Data published in PubChem BioAssay (NCI).
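All cell lines were grown in 96-well plates and treated with compound for 48 hours. TGI is the concentration that stops growth completely.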

Assays:
Experiment in all cases: NCI-60 cell line screen, 48 h
A498 renal = tested on: A498 renal
LXFL 529 NSCLC = tested on: LXFL 529 NSCLC
HCT-116 colon = tested on: HCT-116 colon
KM12 colon = tested on: KM12 colon
SW-620 colon = tested on: SW-620 colon
LOX IMVI melanoma = tested on: LOX IMVI melanoma
UACC-257 melanoma = tested on: UACC-257 melanoma
KM20L2 colon = tested on: KM20L2 colon
DMS 273 small cell lung = tested on: DMS 273 small cell lung
SN12C renal = tested on: SN12C renal
OVCAR-4 ovarian = tested on: OVCAR-4 ovarian
HOP-62 NSCLC = tested on: HOP-62 NSCLC
IGROV1 ovarian = tested on: IGROV1 ovarian
SK-MEL-2 melanoma = tested on: SK-MEL-2 melanoma
EKVX NSCLC = tested on: EKVX NSCLC
SNB-19 CNS = tested on: SNB-19 CNS
NCI-H23 lung = tested on: NCI-H23 lung
M19-MEL melanoma = tested on: M19-MEL melanoma
SR leukemia = tested on: SR leukemia
OVCAR-8 ovarian = tested on: OVCAR-8 ovarian
OVCAR-5 ovarian = tested on: OVCAR-5 ovarian
SF-268 CNS = tested on: SF-268 CNS
SK-MEL-28 melanoma = tested on: SK-MEL-28 melanoma
TK-10 renal = tested on: TK-10 renal
NCI-H460 lung = tested on: NCI-H460 lung
ACHN renal = tested on: ACHN renal
DMS 114 small cell lung = tested on: DMS 114 small cell lung
SK-MEL-5 melanoma = tested on: SK-MEL-5 melanoma
CCRF-CEM leukemia = tested on: CCRF-CEM leukemia
SF-295 CNS = tested on: SF-295 CNS
UO-31 renal = tested on: UO-31 renal
OVCAR-3 ovarian = tested on: OVCAR-3 ovarian
K-562 leukemia = tested on: K-562 leukemia
NCI-H522 lung = tested on: NCI-H522 lung
A549 NSCLC = tested on: A549 NSCLC
MALME-3M melanoma = tested on: MALME-3M melanoma
NCI-H226 lung = tested on: NCI-H226 lung
SNB-75 CNS = tested on: SNB-75 CNS
SF-539 CNS = tested on: SF-539 CNS
HT29 colon = tested on: HT29 colon
RXF 393 renal = tested on: RXF 393 renal
HL-60(TB) leukemia = tested on: HL-60(TB) leukemia
786-0 renal = tested on: 786-0 renal
COLO 205 colon = tested on: COLO 205 colon
HOP-92 NSCLC = tested on: HOP-92 NSCLC
UACC-62 melanoma = tested on: UACC-62 melanoma
CAKI-1 renal = tested on: CAKI-1 renal
HCC-2998 colon = tested on: HCC-2998 colon
HCT-15 colon = tested on: HCT-15 colon
RXF-631 renal = tested on: RXF-631 renal
HOP-18 NSCLC = tested on: HOP-18 NSCLC
M14 melanoma = tested on: M14 melanoma
MOLT-4 leukemia = tested on: MOLT-4 leukemia
DLD-1 colon = tested on: DLD-1 colon
U251 CNS = tested on: U251 CNS
SNB-78 CNS = tested on: SNB-78 CNS
SK-OV-3 ovarian = tested on: SK-OV-3 ovarian
RPMI-8226 leukemia = tested on: RPMI-8226 leukemia
XF 498 CNS = tested on: XF 498 CNS

C[C@@]1(O)CC[C@]2(C)C3CCCC3[C@H]12 (some centres undefined)
TGI (A498 renal): > 100 µM
TGI (LXFL 529 NSCLC): > 100 µM
TGI (HCT-116 colon): > 100 µM
TGI (KM12 colon): > 100 µM
TGI (SW-620 colon): > 100 µM
TGI (LOX IMVI melanoma): > 100 µM
TGI (UACC-257 melanoma): > 100 µM
TGI (KM20L2 colon): > 100 µM
TGI (DMS 273 small cell lung): > 100 µM
TGI (SN12C renal): > 100 µM
TGI (OVCAR-4 ovarian): > 100 µM
TGI (HOP-62 NSCLC): > 100 µM
TGI (IGROV1 ovarian): > 100 µM
TGI (SK-MEL-2 melanoma): > 100 µM
TGI (EKVX NSCLC): > 100 µM
TGI (SNB-19 CNS): > 100 µM
TGI (NCI-H23 lung): > 100 µM
TGI (M19-MEL melanoma): > 100 µM
TGI (SR leukemia): > 100 µM
TGI (OVCAR-8 ovarian): > 100 µM
TGI (OVCAR-5 ovarian): > 100 µM
TGI (SF-268 CNS): > 100 µM
TGI (SK-MEL-28 melanoma): > 100 µM
TGI (TK-10 renal): > 100 µM
TGI (NCI-H460 lung): > 100 µM
TGI (ACHN renal): > 100 µM
TGI (DMS 114 small cell lung): > 100 µM
TGI (SK-MEL-5 melanoma): > 100 µM
TGI (CCRF-CEM leukemia): > 100 µM
TGI (SF-295 CNS): > 100 µM
TGI (UO-31 renal): > 100 µM
TGI (OVCAR-3 ovarian): > 100 µM
TGI (K-562 leukemia): > 100 µM
TGI (NCI-H522 lung): > 100 µM
TGI (A549 NSCLC): > 100 µM
TGI (MALME-3M melanoma): > 100 µM
TGI (NCI-H226 lung): > 100 µM
TGI (SNB-75 CNS): > 100 µM
TGI (SF-539 CNS): > 100 µM
TGI (HT29 colon): > 100 µM
TGI (RXF 393 renal): > 100 µM
TGI (HL-60(TB) leukemia): > 100 µM
TGI (786-0 renal): > 100 µM
TGI (COLO 205 colon): > 100 µM
TGI (HOP-92 NSCLC): > 100 µM
TGI (UACC-62 melanoma): > 100 µM
TGI (CAKI-1 renal): > 100 µM
TGI (HCC-2998 colon): > 100 µM
TGI (HCT-15 colon): > 100 µM
TGI (RXF-631 renal): > 100 µM
TGI (HOP-18 NSCLC): > 100 µM
TGI (M14 melanoma): > 100 µM
TGI (MOLT-4 leukemia): > 100 µM
TGI (DLD-1 colon): > 100 µM
TGI (U251 CNS): > 100 µM
TGI (SNB-78 CNS): > 100 µM
TGI (SK-OV-3 ovarian): > 100 µM
TGI (RPMI-8226 leukemia): > 100 µM

O=C(Nc1nc(=S)[nH][nH]1)C(=O)C(C(=O)c1ccc2ccccc2c1)C1OC(=O)c2ccccc21 (centres undefined)
TGI (A498 renal): > 100 µM
TGI (LXFL 529 NSCLC): 52.7 µM
TGI (HCT-116 colon): 27.6 µM
TGI (KM12 colon): > 100 µM
TGI (SW-620 colon): > 100 µM
TGI (LOX IMVI melanoma): 39 µM
TGI (UACC-257 melanoma): 76.5 µM
TGI (XF 498 CNS): 41.9 µM
TGI (KM20L2 colon): > 100 µM
TGI (DMS 273 small cell lung): 87.5 µM
TGI (SN12C renal): 47.2 µM
TGI (OVCAR-4 ovarian): 58.2 µM
TGI (HOP-62 NSCLC): 45.4 µM
TGI (IGROV1 ovarian): 53.7 µM
TGI (SK-MEL-2 melanoma): 53.2 µM
TGI (EKVX NSCLC): > 100 µM
TGI (SNB-19 CNS): 33.3 µM
TGI (NCI-H23 lung): 79.9 µM
TGI (M19-MEL melanoma): 30.6 µM
TGI (OVCAR-8 ovarian): 94.4 µM
TGI (OVCAR-5 ovarian): > 100 µM
TGI (SF-268 CNS): > 100 µM
TGI (SK-MEL-28 melanoma): 49.1 µM
TGI (TK-10 renal): 80.3 µM
TGI (NCI-H460 lung): > 100 µM
TGI (ACHN renal): > 100 µM
TGI (DMS 114 small cell lung): 52.7 µM
TGI (SK-MEL-5 melanoma): 43.9 µM
TGI (CCRF-CEM leukemia): 80.7 µM
TGI (UO-31 renal): 30.5 µM
TGI (OVCAR-3 ovarian): 67 µM
TGI (K-562 leukemia): 82.9 µM
TGI (NCI-H522 lung): 65.3 µM
TGI (A549 NSCLC): > 100 µM
TGI (MALME-3M melanoma): > 100 µM
TGI (NCI-H226 lung): 19.8 µM
TGI (SNB-75 CNS): 63.1 µM
TGI (SF-539 CNS): 25.2 µM
TGI (HT29 colon): > 100 µM
TGI (RXF 393 renal): 26.8 µM
TGI (786-0 renal): 49.5 µM
TGI (COLO 205 colon): 34.5 µM
TGI (HOP-92 NSCLC): 73.7 µM
TGI (UACC-62 melanoma): 30.2 µM
TGI (CAKI-1 renal): > 100 µM
TGI (HCC-2998 colon): 24 µM
TGI (HCT-15 colon): 78.5 µM
TGI (RXF-631 renal): 77.6 µM
TGI (HOP-18 NSCLC): 40.2 µM
TGI (M14 melanoma): 40.9 µM
TGI (MOLT-4 leukemia): 21.1 µM
TGI (DLD-1 colon): 44.6 µM
TGI (U251 CNS): > 100 µM
TGI (SNB-78 CNS): > 100 µM
TGI (SK-OV-3 ovarian): > 100 µM
TGI (RPMI-8226 leukemia): 40.2 µM

CCOC(=O)C1=C(C)N(NC(=O)Nc2ccccc2)C2(N)N(NC(=O)Nc3ccccc3)C(C)=C(C(=O)OCC)C12C(=O)OCC (centres undefined)
TGI (A498 renal): > 100 µM
TGI (LXFL 529 NSCLC): > 100 µM
TGI (HCT-116 colon): 80.2 µM
TGI (KM12 colon): > 100 µM
TGI (SW-620 colon): > 100 µM
TGI (LOX IMVI melanoma): > 100 µM
TGI (UACC-257 melanoma): > 100 µM
TGI (XF 498 CNS): 37.9 µM
TGI (KM20L2 colon): > 100 µM
TGI (DMS 273 small cell lung): > 100 µM
TGI (SN12C renal): 3.01 µM
TGI (OVCAR-4 ovarian): > 100 µM
TGI (HOP-62 NSCLC): 84.7 µM
TGI (IGROV1 ovarian): > 100 µM
TGI (SK-MEL-2 melanoma): > 100 µM
TGI (EKVX NSCLC): > 100 µM
TGI (SNB-19 CNS): > 100 µM
TGI (NCI-H23 lung): > 100 µM
TGI (M19-MEL melanoma): > 100 µM
TGI (SR leukemia): > 100 µM
TGI (OVCAR-8 ovarian): > 100 µM
TGI (OVCAR-5 ovarian): > 100 µM
TGI (SF-268 CNS): > 100 µM
TGI (SK-MEL-28 melanoma): > 100 µM
TGI (TK-10 renal): > 100 µM
TGI (NCI-H460 lung): > 100 µM
TGI (ACHN renal): > 100 µM
TGI (DMS 114 small cell lung): > 100 µM
TGI (SK-MEL-5 melanoma): > 100 µM
TGI (SF-295 CNS): > 100 µM
TGI (UO-31 renal): > 100 µM
TGI (OVCAR-3 ovarian): > 100 µM
TGI (K-562 leukemia): > 100 µM
TGI (NCI-H522 lung): > 100 µM
TGI (A549 NSCLC): > 100 µM
TGI (MALME-3M melanoma): 93.5 µM
TGI (SNB-75 CNS): 98.1 µM
TGI (SF-539 CNS): 53.4 µM
TGI (HT29 colon): > 100 µM
TGI (RXF 393 renal): 22.4 µM
TGI (HL-60(TB) leukemia): > 100 µM
TGI (786-0 renal): > 100 µM
TGI (COLO 205 colon): 3.25 µM
TGI (HOP-92 NSCLC): 42.8 µM
TGI (UACC-62 melanoma): > 100 µM
TGI (HCC-2998 colon): 80.8 µM
TGI (HCT-15 colon): > 100 µM
TGI (RXF-631 renal): > 100 µM
TGI (HOP-18 NSCLC): 54.6 µM
TGI (M14 melanoma): > 100 µM
TGI (DLD-1 colon): > 100 µM
TGI (U251 CNS): > 100 µM
TGI (SNB-78 CNS): > 100 µM
TGI (SK-OV-3 ovarian): > 100 µM
TGI (RPMI-8226 leukemia): > 100 µM
